These results are taken from patent US20100227793A1, “Compositions and Methods for Treating Amyotrophic Lateral Sclerosis” (priority 2009, published 2010).

“Also recorded” adds a separate entry of the source.

Experiment [1] relates to KHC584 (first 584 amino acid residues of kinesin-1c). Kind of experiment: In vitro kinase assay of recombinant p38α with KHC584. The class given is biochemical. The settings on record: sites mapped to Ser175 and Ser176 by LC/MS/MS. From the text:
Although p38α was implicated in mediating the inhibitory effect of pathogenic SOD1 on FAT, specific p38α targets relevant to these effects needed to be determined (Bendotti, et al. (2005) Neurodegener. Dis. 2:128-34). […] These precedents prompted the determination of whether p38α could directly phosphorylate kinesin-1 subunits of conventional kinesin.
Liquid chromatography tandem mass spectrometry (LC/MS/MS) was used to map KHC584 residues phosphorylated by p38α. To this end, in vitro phosphorylated KHC584 was directly digested with trypsin for LC/MS/MS analysis. Trypsin digest products were fractioned on a C18 HPLC connected to an on-line electrospray ion trap mass spectrometer. Peptide identification was done using SEQUEST algorithm. KHC584 identity was confirmed by identification of multiple kinesin-1C peptides. A peptide corresponding to amino acids 174-188 with unequivocal evidence of phosphorylation by p38α was identified based on spectrum analysis, cross correlation and delta correlation values. Tandem mass spectrometry analysis (MS/MS) by collision-induced dissociation further mapped phosphorylation on both Ser175 and Ser176, consistent with studies showing phosphorylation of Ser176 by the MAPK JNK3. Remarkably, serines 175 and 176 are conserved among squid, mouse and human kinesin-1s (FIG. 4). […]

In experiment [2] the test system is fast axonal transport (FAT). Kind of experiment: Vesicle motility assays in squid axoplasm perfused with recombinant active p38 isoforms. The class given is cell-based. As for the experimental part: Four p38 genes exist in mammals (p38α, p38β, p38γ, and p38δ) (Kyriakis & Avruch (2001) Physiol. Rev. 81:807-69). The p38α and p38β kinases are major p38 isoforms within the nervous system (Lee, et al. (2000) J. Neurosci. Res. 60:623-31), as well as being the most prominent p38 isoforms expressed in motor neurons of the anterior horn spinal cord, the main cell type affected in ALS (Ackerley, et al. (2004) Mol. Cell. Neurosci. 26:354-64). The effect of specific p38 isoforms on FAT was evaluated using vesicle motility assays. The enzymatic activities of recombinant p38 isoforms were first normalized using in vitro kinase assays with ATF-2 as substrate.

Experiment [3] deals with N2A cells stably transfected with G85R-SOD1. Kind of experiment: Cell viability (LDH) assay, cells exposed to cyclosporine (CsA). The following applies: various concentrations of CsA, presence or absence of inhibitor. The class given is cell-based. As for the experimental part: (§1) Multiple studies have documented activation of apoptotic mechanism in association with mutant SOD1 expression (Pasinelli, et al. (2004) Neuron 43:19-30). […] To evaluate the role of p38 in this process, cell viability (LDH) and caspase activity assays were performed using N2A cells stably transfected with WT-SOD1 or G85R-SOD1 constructs. […] N2A cells were exposed to various concentrations of CsA in the presence or absence of the p38 inhibitor SB203580.

The subject of experiment [4] is inhibition of anterograde FAT by G93A-SOD1. Kind of experiment: Co-perfusion of G93A-SOD1 with kinase inhibitors in squid axoplasm (vesicle motility assay). The class given is cell-based. The following applies: for prevention of the inhibition of anterograde FAT induced by G93A-SOD1: co-perfused with recombinant G93A-SOD1 in axoplasm. As to the method:
Increased phosphorylation of neurofilament indicated altered kinase activity with mutant SOD1 and kinases represent a major mechanism for the regulation of conventional kinesin (Donelan, et al. (2002) J. Biol. Chem. 277:24232-42; Morfini, et al. (2006) Nat. Neurosci. 9:907-16; Morfini, et al. (2002) EMBO J. 23:281-93; Morfini, et al. (2001) Dev. Neurosci. 23:364-76). Accordingly, it was determined whether specific protein kinases mediated the effect of mutant SOD1 on anterograde FAT. To this end, axoplasms were co-perfused with recombinant G93A-SOD1 and specific pharmacological or peptide inhibitors of protein kinases. Co-perfusion approaches have facilitated the identification of kinase-dependent pathogenic pathways in other models.
SB203580 is a highly specific pharmacological kinase inhibitor of the mitogen-activated protein kinase (MAPK) p38, and its specificity has been evaluated for more than 100 kinases (Fabian, et al. (2005) Nat. Biotechnol. 23:329-36).
In addition to the docking interactions of MAPKs with MKKs, substrates and regulators there are specific motifs that control the interactions of MKKKs and MKKs. A docking site termed DVD (domain for versatile docking) is found in several MKKs including MKK3 and MKK6, which are involved in p38 regulation. […] Observations of p38 activation in an ALS mouse model prompted the evaluation of the role of MKKs in mediating the inhibitory effect of mutant SOD1 on FAT. To this end, pharmacological inhibitors of MKKKs were co-perfused along with SOD1-G93A in squid axoplasm. The MLK-specific inhibitor CEP11004 (Ganguly, et al. (2004) J. Neurochem. 88(2):469) was ineffective, but co-perfusion of mutant SOD1 with DVD peptide prevented the effects of mutant SOD1 on FAT. The DVD site on MKKs is required for docking and activation by a subset of upstream MKKKs (ASK1, TAK1, etc.), and peptides based on this sequences prevents MAPK activation in cultured cells (Takekawa, et al. (2005) Mol. Cell. 18(3):295).

The test system of experiment [5] is N2A cells stably transfected with G85R-SOD1. Kind of experiment: Caspase-3 activity assay, cells exposed to cyclosporine (CsA). The class given is cell-based. The following applies: various concentrations of CsA, presence or absence of inhibitor. As to the method:
as §1

For experiment [6], the system named is fast axonal transport (FAT), anterograde (conventional kinesin-dependent) and retrograde (CDyn-dependent). Kind of experiment: Vesicle motility assays in isolated squid axoplasm perfused with SOD1 polypeptides. The following applies: polypeptides perfused at 5 μM; video-enhanced microscopy over 50 minutes. It is filed as cell-based. As to the method: Although the axonal compartment represents a critical pathogenic target in ALS, axon-specific effects of mutant SOD1 have not been previously addressed. […] However, it was not clear whether those defects resulted from pathogenic events in the neuronal cell body, or from alterations of cellular processes within the axonal compartment (Conforti, et al. (2007) Trends Neurosci. 30:159-66). Therefore, axon-autonomous effects of pathogenic SOD1 on FAT were evaluated using vesicle motility assays in isolated squid axoplasm, which lacks both nuclear and protein synthetic synthesis compartments. This experimental system allows for quantitative analysis of MBOs moving in both anterograde (conventional kinesin-dependent) and retrograde (cytoplasmic dynein-dependent) FAT rates. Further, the lack of plasma membrane in this preparation facilitates an evaluation of the effects of neuropathogenic proteins on FAT.
Highly purified (>95%), recombinant forms of wild-type SOD1 (WT-SOD1) and […] fALS-related SOD1 mutants (G93A-SOD1, G85R-SOD1, H46R and A4V-SOD1) were according to standard methods (Strange, et al. (2003) J. Mol. Biol. 328:877-891). Polypeptides were perfused at 5 μM concentration, and both anterograde (conventional kinesin-dependent) and retrograde (CDyn-dependent) FAT rates analyzed by video-enhanced microscopy over 50 minutes. Perfusion of wild type SOD1 (WT-SOD1) had no effect on either direction of FAT. […] Further, the presence of ATP (5 mM) in the perfusion buffer also ruled out mutant SOD1-induced deficits in ATP production.

The subject of experiment [7] is ERK. Kind of experiment: Immunoblot of sister axoplasms with activation-specific phosphoantibodies (ERK). The class given is cell-based, squid. The settings on record: G93A-SOD1 vs WT-SOD1-perfused axoplasms. As for the experimental part:
(§2) To refine this identification, activation of various p38 and other NF kinases were evaluated in “sister” axoplasms. […] Quantitative analysis of immunoblots indicated G93A-SOD1 induced approximately a 4-fold increase in p38 activity, compared to WT-SOD1 perfused of p38 (n=8).
(Immunoblotting shows a protein as a band on a membrane.)

The subject of experiment [8] is JNK. Kind of experiment: Immunoblot of sister axoplasms with activation-specific phosphoantibodies (JNK). The following applies: G93A-SOD1 vs WT-SOD1-perfused axoplasms. The class given is cell-based, squid. As for the experimental part: as §2
In experiment [9] the test system is NF220 (neurofilament). Kind of experiment: Metabolic labeling of isolated sister axoplasms with 32P-ATP, autoradiography/PHOSPHORIMAGER
The class given is cell-based, squid. The settings on record: compared to WT-SOD1-perfused sister axon; 50-minute incubation; n=4; p≦0.0284. As for the experimental part: To determine whether mutant SOD1 could induce activation of axonal kinases, metabolic labeling experiments were performed in isolated axoplasms. These procedures helped evaluate effects of WT-SOD1 and G93-SOD1 polypeptides on the phosphorylation pattern of axonal proteins. Two axons from the same squid (“sister” axons) were dissected and extruded. One axon was perfused with WT-SOD1, whereas the contralateral “sister” axon was perfused with G93A-SOD1 in the presence of P^32-radiolabelled ATP. After a 50-minute incubation, axoplasms were lysed and analyzed by autoradiography. Neurofilament (NF) proteins represent the major phosphoproteins proteins in both squid axoplasm and mammalian axons. Consistent with this, increased phosphorylation of NFs represents a well-documented feature early in the course of ALS.

Experiment [10] has as its system GSK3. Kind of experiment: Immunoblot of sister axoplasms with activation-specific phosphoantibodies (GSK3). The class given is cell-based, squid. The settings on record: G93A-SOD1 vs WT-SOD1-perfused axoplasms. As for the experimental part: as §2
Experiment [11] concerns p38. Kind of experiment: Immunoblot of sister axoplasms with antibodies against phosphorylated, catalytically active p38. The settings on record: compared to WT-SOD1-perfused axoplasm; n=8. The class given is cell-based, squid. As for the experimental part: as §2

Take p38α: recombinant active p38 isoform α: in [1], the “phosphorylation of KHC584” value was “phosphorylated”. Also, in experiment [2] (perfused at 10 nM), the “effect on FAT” value is “most closely mimicked; also recorded: selective inhibition of anterograde FAT”.
Turning to `C[S+]([O-])c1ccc(-c2nc(-c3ccncc3)c(-c3ccc(F)cc3)[nH]2)cc1` (stereo not shown) [SB203580], in [3], the “attenuation of cell death (LDH)” value is on record as “significant attenuation”. For the same molecule, the “anterograde FAT rates compared with WT-SOD1-perfused axoplasm” value in experiment [4] (co-perfused with G93A-SOD1, FIG. 2) is reported as “undistinguishable”. Besides, the “prevention of the inhibition of anterograde FAT induced by G93A-SOD1” value in [4] is reported as “protective effects; also recorded: completely prevented”. In experiment [5], the “attenuation of caspase activation (caspase-3 activity)” value is listed as “significant attenuation”.
On to CEP11004, for which the “prevention of the inhibition of anterograde FAT induced by G93A-SOD1” value in [4] is “ineffective”.
Regarding “WT-SOD1: highly purified recombinant wild-type SOD1”, in [6], the “effect on anterograde FAT rate” value is on record as “no effect” and the “effect on retrograde FAT rate” value is “no effect”.
Take “G93A-SOD1: recombinant fALS-related SOD1 mutant G93A”: the “change in ERK activity” value in experiment [7] is recorded as “did not reveal changes”. For the same molecule, the “change in JNK activity” value in [8] is listed as “did not reveal changes”. Moreover, the “effect on anterograde FAT rate” value in experiment [6] is “selectively inhibited”. For the same molecule, in experiment [9], the “increase in overall NF220 phosphorylation” value was determined as 2 fold. The “change in GSK3 activity” value in experiment [10] is listed as “did not reveal changes”. Also, the “increase in p38 activity (p-p38 immunoblot)” value in experiment [11] is around 4 fold.

B1: p38γ: recombinant active p38 isoform γ (protein, UniProt P53778 1-367, looked up)
Mitogen-activated protein …: MSSPPPARSGFYRQEVTKTAWEVRAVYRDLQPVGSGAYGAVCSAVDGRTGAKVAIKKLYRPFQSELFAKRAYRELRLLKHMRHENVIGLLDVFTPDETLDDFTDFYLVMPFMGTDLGKLMKHEKLGEDRIQFLVYQMLKGLRYIHAAGIIHRDLKPGNLAVNEDCELKILDFGLARQADSEMTGYVVTRWYRAPEVILNWMRYTQTVDIWSVGCIMAEMITGKTLFKGSDHLDQLKEIMKVTGTPPAEFVQRLQSDEAKNYMKGLPELEKKDFASILTNASPLAVNLLEKMLVLDAEQRVTAGEALAHPYFESLHDTEDEPQVQKYDDSFDDVDRTLDEWKRVTYKEVLSFKPPRQLGARVSKETPL
For B1, the “effect on FAT” value in experiment [2] (perfused at 100 nM) is recorded as “lesser extent; also recorded: more modest effect”.

B2: p38δ: recombinant active p38 isoform δ (protein, UniProt O15264 1-365, looked up)
Mitogen-activated protein …: MSLIRKKGFYKQDVNKTAWELPKTYVSPTHVGSGAYGSVCSAIDKRSGEKVAIKKLSRPFQSEIFAKRAYRELLLLKHMQHENVIGLLDVFTPASSLRNFYDFYLVMPFMQTDLQKIMGMEFSEEKIQYLVYQMLKGLKYIHSAGVVHRDLKPGNLAVNEDCELKILDFGLARHADAEMTGYVVTRWYRAPEVILSWMHYNQTVDIWSVGCIMAEMLTGKTLFKGKDYLDQLTQILKVTGVPGTEFVQKLNDKAAKSYIQSLPQTPRKDFTQLFPRASPQAADLLEKMLELDVDKRLTAAQALTHPFFEPFRDPEEETEAQQPFDDSLEHEKLTVDEWKQHIYKEIVNFSPIARKDSRRRSGMKL
B2: the “effect on FAT” value in [2] (perfused at 50 nM) was “no effect”; in experiment [2] (perfused at 50 nM, listed as p385) it was “did not affect FAT”.

B3: p3813: recombinant active p38 isoform β (misprinted) (protein, UniProt Q15759 1-364, looked up)
Mitogen-activated protein …: MSGPRAGFYRQELNKTVWEVPQRLQGLRPVGSGAYGSVCSAYDARLRQKVAVKKLSRPFQSLIHARRTYRELRLLKHLKHENVIGLLDVFTPATSIEDFSEVYLVTTLMGADLNNIVKCQALSDEHVQFLVYQLLRGLKYIHSAGIIHRDLKPSNVAVNEDCELRILDFGLARQADEEMTGYVATRWYRAPEIMLNWMHYNQTVDIWSVGCIMAELLQGKALFPGSDYIDQLKRIMEVVGTPSPEVLAKISSEHARTYIQSLPPMPQKDLSSIFRGANPLAIDLLGRMLVLDSDQRVSAAEALAHAYFSQYHDPEDEPEAEPYDESVEAKERTLEEWKELTYQEVLSFKPPEPPKPPGSLEIEQ
Take B3: in experiment [2] (perfused at 50 nM), the “effect on FAT” value is “inhibited both anterograde and retrograde FAT”.
